The record followed here is PMC8279415, “Targeting Acute Myelogenous Leukemia Using Potent Human Dihydroorotate Dehydrogenase Inhibitors Based on the 2-Hydroxypyrazolo[1,5-a]pyridine Scaffold: SAR of the Biphenyl Moiety” (Journal of Medicinal Chemistry, 2021).

Broadly, the IC50 is the concentration that inhibits the measured activity by half. A word on the logD: it is lipophilicity at a set pH, counting ionised and neutral species. A high value points to a more lipophilic compound. As a reminder, the solubility is the concentration that dissolves in the medium under given conditions. Lower therefore signals little dissolved substance.

Data set [1] in a line: In vitro metabolic profile in rat-liver microsomes. In kind it is in vitro ADME. Particulars: for metabolites identified in sample C: active rat-liver microsomes and regenerating system, HPLC-HRMS. As for the experimental part: SyGMa (systematic generation of potential metabolites) software, a tool that lists predicted metabolites with associated empirical probability scores, was used to identify putative metabolites, which were then investigated by analyzing samples with liquid chromatography coupled to high-resolution mass spectrometry (HPLC–HRMS). […] The full-scan MS data acquired for all of the samples were analyzed to find the m/z values of the predicted molecular structures. In order to exclude interfering signals, the results obtained were compared to blank samples and common background peaks were not considered.
Rat-liver microsomes (Sprague-Dawley, male, Sigma-Aldrich; 20 mg/mL protein concentration) were incubated with the candidate compound solution (5 μM final concentration, with 1% DMSO) and Tris buffer (0.1 M, pH = 7.4). The regenerating system, which slowly generated coenzyme units over the incubation time, leading to a better reproduction of in vivo behavior, was composed of MgCl2 (3.3 mM), NADP^+ (1.3 mM), Glu6P (3.5 mM), and Glu6P dehydrogenase (0.5 U/mL).
The incubation time started with the addition of the microsomes suspension (0.5 mg/mL).
Metabolic reactions were stopped by adding 100 μL of cooled acetonitrile to the 100 μL sample of the incubation mixture. Samples were centrifuged to provoke protein precipitation, and the supernatants were immediately stocked at −80 °C, until analysis, to prevent the potential degradation of unstable products.
The products of in vitro metabolism were identified using a high-resolution mass spectrometer (Q-Exactive Orbitrap, Thermo Scientific) coupled to an HPLC instrument (1200 system Agilent). All analytes were separated on an Ascentis C18 column (150 mm × 2.1 mm, 5 μm particle size) maintained at 35 °C. The elution mixture was composed of solvent A (0.1% formic acid in water for positive ionization mode and 0.05% acetic acid for negative ionization mode) and solvent B (acetonitrile). […] MS2-DIA scans were acquired at R = 17 500 and with variable collision energies ranging from 30 to 45, depending on the m/z of the parent ion.
For orientation: Microsomes from liver hold many membrane-bound enzymes, among them those of drug oxidation.

Another data set has as its target T1, recombinant hDHODH (Homo sapiens, UniProt Q02127).
T1 construct: made in house; host or cells: E. coli BL21DE3 PyrD
The data set can be described thus: hDHODH inhibition assay (DCIP reduction). In kind it is biochemical. As for the experimental part:
BL21DE3 PyrD E. coli cells were transformed using the plasmid construct pFN2A–hDHODH (kindly given by Department of Drug Science and Technology, University of Turin, Turin, Italy). The vector produces hDHODH as an N-terminal GST-fusion protein. Cells were grown at 37 °C in LB medium supplemented with 0.1 mM flavin mononucleotide (Cayman Chemical). […] Triton X-100 was added to the lysate, to a final concentration of 1%, before centrifugation at 14 000g for 40 min at 4 °C. The clarified supernatant was incubated with DNase I for 30 min at room temperature, supplemented with 2 mM dithiothreitol (DTT), and filtered through a 0.45 μm syringe filter as previously described by Sainas et al.[18] The GST-fused enzyme was purified from the bacterial lysate using affinity chromatography on immobilized glutathione-Sepharose columns (GE- […]). The GST tag was not cleaved for further analysis. All the reagents used in the protein expression and purification were supplied by Merck/Sigma-Aldrich if not otherwise specified.
The enzymatic inhibition assay was optimized for being performed on a 96-well plate and to achieve higher throughput. For each well of the plate a total volume of 200 μL was used: 5 μL of purified GST-hDHODH; 60 μL of 2,6-dichloroindophenol (DCIP) 50 μM; 20 μL of coenzyme Q10 enzyme 100 μM; 20 μL of dihydroorotate (DHO) 500 μM; Tris-HCl, pH 8, up to a final volume of 200 μL. Inhibitory activity was assessed by monitoring the reduction of DCIP, which is associated with the oxidation of dihydroorotate as catalyzed by the DHODH enzyme. The enzyme was preincubated for 5 min at 37 °C in Tris-HCl, pH 8, with coenzyme Q10, with DCIP (50 μM), and with the compounds to be tested used at different concentrations (final DMSO concentration 0.1% v/v). The reaction was initiated by the addition of DHO (500 μM), and the absorbance kinetic reduction was monitored at λ = 650 nm using a multiplate reader (Tecan, M1000Pro). In order to assess the minimum and maximum absorbance values of the enzymatic reaction, a Min control value was obtained by measuring the absorbance without DHO. Similarly, a Max value was obtained by measuring the absorbance with DHO but no inhibitor. A blank reduction calculation was also performed by measuring the absorbance values using 180 μL of Tris-HCl and 20 μL of coenzyme Q10. The instrument was set to read the absorbance values every 10 s for a total read time of 10 min at 37 °C. […] Values are the mean ± SE of three independent experiments.

Data set [2] can be described thus: Solubility assay at pH 7.4 in PBS. In kind it is physicochemical. Particulars: for solubility in PBS / solubility at 24 h: pH 7.4, 25 °C, 24 h, LOD 6 μM; for solubility at 24 h: phosphate buffered saline. As for the experimental part: These suspensions were filtered through a PTFE 0.45 μm filter (VWR), and the solutions were chromatographically analyzed using a PerkinElmer ultrahigh performance liquid chromatography (UHPLC) instrument, equipped with a reverse-phase (RP) C18 Phenomenex column (2.1 mm × 100 mm, 1.7 μm particle size). […] The flow rate was 0.5 mL/min. Standard injection volumes were either 2 or 4 μL for poorly soluble compounds. The detection system was a PerkinElmer diode array detector. The wavelengths that were monitored for each compound were defined according to the compound’s own absorption spectrum. Solubility, expressed as μM concentration of the saturated solution, was calculated via interpolation with external calibration curves that were obtained with solutions of each compound in acetonitrile.

The nature of data set [3]: LogD7.4, shake-flask n-octanol/PBS. Particulars: for logD at 20 min / logD: pH 7.4; for logD: n-octanol/PBS; for LogD^7.4 ± SD: n-octanol/PBS pH 7.4, shake-flask; for Log D7.4 ± SD (supplement CSV): supplementary CSV.
Procedure: The partition coefficients between n-octanol and PBS at pH 7.4 (LogD^7.4) were obtained using the shake-flask technique at room temperature. In the shake-flask experiments, 50 mM phosphate buffered saline, pH 7.4, was used as the aqueous phase. The organic (n-octanol) and aqueous phases were mutually saturated by shaking for 4 h. The compounds were solubilized in the buffered aqueous phase at the highest concentration compatible with solubility, and appropriate amounts of n-octanol were added. The two phases were shaken for about 20 min, by which time the partitioning equilibrium of solutes had been reached, and then centrifuged (10 000 rpm, 10 min). The concentration of the solutes was measured in the aqueous phase using a UV spectrophotometer (Varian Cary 50BIO); absorbance values (recorded for each compound at the wavelength of maximum absorption) were interpolated in calibration curves obtained using standard solutions of the compounds (r^2 > 0.99). Each log D value is an average of at least six measurements.
In data set [4] the test system is THP1 cells. Description: Fixed-concentration screening of differentiation (CD14) and apoptosis (annexin V) in THP1, with or without uridine. In kind it is cell-based, human. The protocol:
DMSO (dimethyl sulfoxide) acts as the negative control group as it was used to solubilize hDHODH inhibitors. ∗, ∗∗, ∗∗∗ represent the statistical significance for apoptosis (respectively p < 0.05, < 0.01, and <0.001). #, ##, and ### represent the statistical significance for differentiation (respectively p < 0.05, <0.01, and <0.001). The statistical significance is calculated by comparing the compounds to DMSO.
The statistical significance is calculated by comparing the compounds to DMSO.

Data set [5] has as its system U937 cells. Description: Annexin V apoptosis assay in U937. Particulars: EC50 ratio vs brequinar.
Data set [6] deals with THP1 cells. The data set can be described thus: Annexin V apoptosis assay in THP1. Particulars: EC50 ratio vs brequinar.
Another data set relates to Jurkat cells. Description: CFSE-based cytotoxic activity assay. Particulars: concentration inducing cytotoxicity ≥30%, 3 days.
For data set [7], the system named is U937 cells. Description: Differentiation assay (CD11b expression) in U937. Particulars: EC50 ratio vs brequinar.
Setting [8] is: mean ± SE of three independent experiments, read-out: hDHODH, IC50 ± SE.
[9] abbreviates: supplementary CSV, values differ from Table 2, read-out: hDHODH IC50 ± SE (supplement CSV).

Values after ≈ are worked out from the molar mass of the structure shown. “Also recorded” adds a separate entry of the source. Like-named read-outs stand apart in the source and are kept apart here.

T1 sequence (Q02127 whole entry): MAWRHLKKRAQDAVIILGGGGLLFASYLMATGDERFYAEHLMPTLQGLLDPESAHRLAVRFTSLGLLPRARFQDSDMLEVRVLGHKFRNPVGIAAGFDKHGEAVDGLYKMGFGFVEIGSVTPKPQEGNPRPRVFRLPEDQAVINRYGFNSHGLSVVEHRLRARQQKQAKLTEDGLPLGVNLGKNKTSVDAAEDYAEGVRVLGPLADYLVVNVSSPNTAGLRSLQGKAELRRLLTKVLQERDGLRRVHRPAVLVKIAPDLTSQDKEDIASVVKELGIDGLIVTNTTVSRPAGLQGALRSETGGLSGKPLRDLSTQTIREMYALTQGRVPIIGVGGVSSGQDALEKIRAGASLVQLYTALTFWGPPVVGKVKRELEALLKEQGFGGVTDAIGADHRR

As for `O=C(Nc1c(F)c(F)c(-c2ccccc2)c(F)c1F)c1c(O)nn2ccccc12` [Compound 1], in [1], the “metabolites identified in sample C” value is “monohydroxylated, dihydroxylated, and methoxylated metabolites”.
For `Cc1cccc2c(C(=O)Nc3c(F)c(F)c(-c4ccccc4)c(F)c3F)c(O)nn12` [Compound 2], the IC50 at recombinant hDHODH (setting [8]) was 4.3 ± 0.5 nM.
For `O=C(Nc1c(F)c(F)c(-c2ccccc2)c(F)c1F)c1c(O)nn2c(Cl)cccc12` [Compound 4, 7-Chloro-2-hydroxy-N-(2,3,5,6-tetrafluoro-[1,1′-biphenyl]-4-yl)pyrazolo[1,5-a]pyridine-3-carboxamide], the “solubility in PBS” value in [2] is reported as “<LOD”. At recombinant hDHODH (setting [8]), the IC50 came out at 3.4 ± 0.5 nM. This compound showed a logD at 20 min in [3] of 2.81 ± 0.13.
In the case of `O=C(Nc1c(F)c(F)c(-c2ccccc2)c(F)c1F)c1c(O)nn2c1CCCC2` [Compound 5, 2-Hydroxy-N-(2,3,5,6-tetrafluoro-[1,1′-biphenyl]-4-yl)-4,5,6,7-tetrahydropyrazolo[1,5-a]pyridine-3-carboxamide], the “solubility in PBS” value in [2] was “<LOD”. Further, the IC50 at recombinant hDHODH (setting [8]) amounted to 5.8 ± 0.4 nM. The compound also returned a logD at 20 min in data set [3] of 2.36 ± 0.02.
As to `O=C(Nc1c(F)c(F)c(N2CCOCC2)c(F)c1F)c1c(O)nn2ccccc12` [Compound 6, 2-Hydroxy-N-(2,3,5,6-tetrafluoro-4-morpholinophenyl)pyrazolo[1,5-a]pyridine-3-carboxamide], the concentration in solution in [2] (solubility at 24 h) was 438 µM (≈ 180 µg/mL). In addition, the “activity in cells (differentiation and apoptosis)” value in the data set with THP1 cells [4] (THP1, 1 μM) is “basically inactive”. The IC50 on recombinant hDHODH (setting [8]) worked out at 90.9 ± 13.1 nM. In [3], this compound showed a logD of 0.66 ± 0.08.
For `O=C(Nc1c(F)c(F)c(-c2cccs2)c(F)c1F)c1c(O)nn2ccccc12` [Compound 7, 2-Hydroxy-N-(2,3,5,6-tetrafluoro-4-(thiophen-2-yl)phenyl)pyrazolo[1,5-a]pyridine-3-carboxamide], the IC50 at recombinant hDHODH (setting [8]) was found to be 1.35 ± 0.45 nM; on recombinant hDHODH (setting [9]), 1.37 ± 0.1 nM.
In the case of `O=C(Nc1c(F)c(F)c(-c2ccnc(C(F)(F)F)c2)c(F)c1F)c1c(O)nn2ccccc12` [Compound 9, 2-Hydroxy-N-(2,3,5,6-tetrafluoro-4-(2-(trifluoromethyl)pyridin-4-yl)phenyl)pyrazolo[1,5-a]pyridine-3-carboxamide], in data set [2], the “solubility in PBS relative to 1” value is on record as 1.5 times and the solubility at 24 h turned out to be 20.2 µM (≈ 9.5 µg/mL). Besides, the “activity in cells (differentiation and apoptosis)” value in the data set on THP1 cells [4] (THP1, 1 μM) was “basically inactive”. Besides, at recombinant hDHODH (setting [8]), the IC50 was determined as 150 ± 15 nM. Further, the logD in data set [3] is 1.84 ± 0.06.
Take `O=C(Nc1c(F)c(F)c(-c2ccc(F)cc2)c(F)c1F)c1c(O)nn2ccccc12` [Compound 10, 2-Hydroxy-N-(2,3,4′,5,6-pentafluoro-[1,1′-biphenyl]-4-yl)pyrazolo[1,5-a]pyridine-3-carboxamide]: in data set [2], the “solubility in PBS” value is reported as “<LOD” and the solubility at 24 h was below 6 µM. Besides, at recombinant hDHODH (setting [8]), the IC50 came out at 17.7 ± 3.3 nM. The IC50 on recombinant hDHODH (setting [9]) is 8.32 ± 1.36 nM. In addition, in data set [3], the “LogD^7.4 ± SD” value is “insoluble” and the “Log D7.4 ± SD (supplement CSV)” value was “Insoluble”.
For `O=C(Nc1c(F)c(F)c(-c2ccc(C(F)(F)F)cc2)c(F)c1F)c1c(O)nn2ccccc12` [Compound 12, 2-Hydroxy-N-(2,3,5,6-tetrafluoro-4′-(trifluoromethyl)-[1,1′-biphenyl]-4-yl)pyrazolo[1,5-a]pyridine-3-carboxamide], in data set [2], the “solubility in PBS” value is reported as “<LOD” and the solubility at 24 h was below 6 µM. Also, the IC50 at recombinant hDHODH (setting [8]) came out at 71.8 ± 9.42 nM. Also, the half-inhibitory concentration (IC50) on recombinant hDHODH (setting [9]) is 29.6 ± 3.2 nM. Further, in [3], the “LogD^7.4 ± SD” value is reported as “insoluble” and the “Log D7.4 ± SD (supplement CSV)” value is on record as “Insoluble”.
Take `O=C(Nc1c(F)c(F)c(-c2cccc(O)c2)c(F)c1F)c1c(O)nn2ccccc12` [Compound 14, 2-Hydroxy-N-(2,3,5,6-tetrafluoro-3′-hydroxy-[1,1′-biphenyl]-4-yl)pyrazolo[1,5-a]pyridine-3-carboxamide]: in data set [2], the “solubility in PBS relative to 1” value is given as “around 5 times” and the solubility at 24 h was determined as 55.3 µM (≈ 23.1 µg/mL). Also, the “activity in cells (differentiation and apoptosis)” value with THP1 cells [4] (THP1, 1 μM) is “basically inactive”. Also, on recombinant hDHODH (setting [8]), the IC50 came to 2.78 ± 0.32 nM. Also, on recombinant hDHODH (setting [9]), the IC50 is 2 ± 0.67 nM. The same compound displayed a pH-dependent lipophilicity (logD) in data set [3] of 1.82 ± 0.09.
On to `CCCOc1cccc(-c2c(F)c(F)c(NC(=O)c3c(O)nn4ccccc34)c(F)c2F)c1` [Compound 17, 2-Hydroxy-N-(2,3,5,6-tetrafluoro-3′-propoxy-[1,1′-biphenyl]-4-yl)pyrazolo[1,5-a]pyridine-3-carboxamide], for which the “efficacy in comparison with brequinar, apoptosis U937” value in the data set with U937 cells [5] is 19 times. For the same compound, in the data set with THP1 cells [6], the “superiority to brequinar, apoptosis THP1” value was determined as 13 times. Besides, the “activity in cells (differentiation and apoptosis)” value in the data set with THP1 cells [4] (THP1, 0.1 μM) is “highly active”. In addition, the log distribution coefficient (logD) in data set [3] was determined as 3.28 ± 0.12. Further, in the data set on Jurkat cells, the “cytoxicity Jurkat (effect ≥30% ± SD)” value was above 100 µM. In the data set with U937 cells [7], the “efficacy in comparison with brequinar, differentiation U937” value worked out at 41 times. In data set [1], the “metabolites identified in sample C” value was “monohydroxylated and dealkylated metabolites”. For the same compound, the “time after which parent compound was no longer present” value in data set [1] (rat-liver microsomes with regenerating system) was at most 30 min. Also, in data set [1] (rat-liver microsomes, 2 h), the “metabolic stability” value is reported as “fast metabolism; also recorded: weaker in vitro stability”.
